Experimental data: patent publication US20230027066A1 (Urovant Sciences GmbH, priority 2019, published 2023)

Assays:
[1] = test system: men and women with overactive bladder; test: Phase 3 study (75 mg), patient-reported outcomes (OAB-q LF, PGI); type: in vivo, human; parameters: OAB-q sleep score, improvement greater than placebo / HRQL Total Score, improvement greater than placebo / OAB-q HRQL Total Score, Active - Placebo LS Means Difference: scale not given here
From the text: Patients completed paper questionnaires at the site at the start of each required study visit to assess patient-perceived symptom relief, symptom bother, and health-related quality of life at the study visits. […] These included the following questionnaires:
1. Global Impression Items include Patient Global Impression of Severity (PGI-Severity), Patient Global Impression of Control (PGI-Control), Patient Global Impression of Frequency (PGI-Frequency), Patient Global Impression of Leakage (PGI-Leakage), and Patient Global Impression of Change (PGI-Change).
2. Overactive Bladder Questionnaire (OAB-q long form [OAB-q LF], 1-week recall) is a 33-item patient-administered, disease-specific questionnaire that includes a Health-Related QoL (HRQL) scale (25 items) and a Symptom Bother Scale (8 items). The HRQL is a multidomain concept that represents the patient's general perception of the effect of illness and treatment on physical, psychological, and social aspects of life. […] In the present study, the HRQL scale is divided into 4 subscales: Coping, Concern/Worry, Sleep, and Social Interaction. The Coping subscale (also referred to as the coping domain score) was a secondary endpoint, with items scored from 1 (none of the time) to 6 (all the time), with higher scores indicating better QoL. The HRQL total score is calculated by summating the individual HRQL subscale scores. The Symptom Bother Scale items are scored from 1 (not at all) to 6 (a very great deal), with higher Symptom Bother scores indicating greater symptom severity. The instrument was developed and validated in both continent and incontinent OAB patients, including both men and women.
With the exception of the symptom bother score, a responder was defined as having a change from baseline ≥10. For symptom bother score, a responder was defined as having a change from baseline […]. A higher proportion of patients represented a favorable response.

men and women with OAB = test: Phase 2b study of vibegron in OAB, Part 1, efficacy at Week 8 (voiding diary); type: in vivo, human
From the text: Part 2 was designed to continue to assess the safety and efficacy of concomitant dosing. […] Subjects in both Part 1 and Part 2 had the option of enrolling in a 1-year extension. Participants were required to keep a voiding diary, recording the occurrence of each strong urge, total incontinence, and urge incontinence episode. Efficacy data for Part 1 and Part 2 are summarized herein.
The total number of urgency incontinence episodes must have exceeded the total number of stress incontinence episodes for all subjects.

[2] = Week 12, responder = change from baseline ≥10
[3] = vibegron 75 mg/day, 12-week treatment
[4] = vibegron 3 mg, OAB Wet subjects
[5] = vibegron 15 mg, OAB Wet subjects
[6] = vibegron 50 mg, OAB Wet subjects
[7] = vibegron 100 mg, OAB Wet subjects

O=C(Nc1ccc(C[C@@H]2CC[C@H]([C@H](O)c3ccccc3)N2)cc1)[C@@H]1CCc2nccc(=O)n21 [Vibegron, (6S)-N-[4-[[(2S,5R)−5-[(R)-hydroxy(phenyl)methyl]pyrrolidin−2-yl]methyl]phenyl]−4-oxo−7,8-dihydro−6H-pyrrolo[1,2-a]pyrimidine−6-carboxamide]
OAB-q Symptom Bother Subscore, Week 12 Mean (SD) ([1]; Week 12): 27.78 (19.816)
OAB-q Symptom Bother responders, Difference from Placebo ([1]; Week 12): 11.8
OAB-q Symptom Bother, Active - Placebo LS Means Difference ([1]; Week 12): −6.9
OAB-q Symptom Bother, change from baseline LS Means (SE) ([1]; Week 12): −19.6 (1.24)
OAB-q Total HRQL Score, Week 12 Mean (SD) ([1]; Week 12): 80.12 (20.175)
OAB-q Total HRQL responders, Difference from Placebo ([1]; Week 12): 5.5
OAB-q Symptom Bother responders, % ([1]; Week 12, responder = change from baseline ≤−10): (70.1) %
OAB-q Concern responders, % [1, 2]: (55.7) %
OAB-q Coping responders, % [1, 2]: (61.9) %
OAB-q Sleep responders, % [1, 2]: (53.9) %
OAB-q Total HRQL responders, % [1, 2]: (54.1) %
HRQL Total Score, improvement greater than placebo [1, 3]: 3.8
OAB-q coping domain score, improvement greater than placebo [1, 3]: 3.6
OAB-q sleep score, improvement greater than placebo [1, 3]: 4.5
OAB-q symptom bother score, decrease more than placebo [1, 3]: 6.9
Micturitions: adjusted difference from placebo at Week 8, difference in LS means (MMRM) (men and women with OAB; vibegron 3 mg): −0.5
Micturitions: difference from placebo at Week 8, difference in LS means (cLDA) (men and women with OAB; vibegron 3 mg): −0.46
Urgency episodes: adjusted difference from placebo at Week 8, difference in LS means (MMRM) (men and women with OAB; vibegron 3 mg): −0.2
Urgency episodes: difference from placebo at Week 8, difference in LS means (cLDA) (men and women with OAB; vibegron 3 mg): −0.18
Total incontinence episodes: adjusted difference from placebo at Week 8, difference in LS means (MMRM) (men and women with OAB; [4]): −0.1
Total incontinence episodes: difference from placebo at Week 8, difference in LS means (cLDA) (men and women with OAB; [4]): −0.18
Urgency incontinence episodes: adjusted difference from placebo at Week 8, difference in LS means (MMRM) (men and women with OAB; [4]): −0.2
Urgency incontinence episodes: difference from placebo at Week 8, difference in LS means (cLDA) (men and women with OAB; [4]): −0.28
Micturitions: adjusted difference from placebo at Week 8, difference in LS means (MMRM) (men and women with OAB; vibegron 15 mg): −0.5
Micturitions: difference from placebo at Week 8, difference in LS means (cLDA) (men and women with OAB; vibegron 15 mg): −0.45
Urgency episodes: adjusted difference from placebo at Week 8, difference in LS means (MMRM) (men and women with OAB; vibegron 15 mg): −0.7
Urgency episodes: difference from placebo at Week 8, difference in LS means (cLDA) (men and women with OAB; vibegron 15 mg): −0.67
Total incontinence episodes: adjusted difference from placebo at Week 8, difference in LS means (MMRM) (men and women with OAB; [5]): −0.4
Total incontinence episodes: difference from placebo at Week 8, difference in LS means (cLDA) (men and women with OAB; [5]): −0.48
Urgency incontinence episodes: adjusted difference from placebo at Week 8, difference in LS means (MMRM) (men and women with OAB; [5]): −0.6
Urgency incontinence episodes: difference from placebo at Week 8, difference in LS means (cLDA) (men and women with OAB; [5]): −0.57
Micturitions: adjusted difference from placebo at Week 8, difference in LS means (MMRM) (men and women with OAB; vibegron 50 mg): −0.7
Micturitions: difference from placebo at Week 8, difference in LS means (cLDA) (men and women with OAB; vibegron 50 mg): −0.64
Urgency episodes: adjusted difference from placebo at Week 8, difference in LS means (MMRM) (men and women with OAB; vibegron 50 mg): −0.8
Urgency episodes: difference from placebo at Week 8, difference in LS means (cLDA) (men and women with OAB; vibegron 50 mg): −0.76
Total incontinence episodes: adjusted difference from placebo at Week 8, difference in LS means (MMRM) (men and women with OAB; [6]): −0.5
Total incontinence episodes: difference from placebo at Week 8, difference in LS means (cLDA) (men and women with OAB; [6]): −0.60
Urgency incontinence episodes: adjusted difference from placebo at Week 8, difference in LS means (MMRM) (men and women with OAB; [6]): −0.7
Urgency incontinence episodes: change from baseline at Week 8, mean (men and women with OAB; [6]): −1.90
Urgency incontinence episodes: daily number of events, Week 8 mean (men and women with OAB; [6]): 0.86
Urgency incontinence episodes: difference from placebo at Week 8, difference in LS means (cLDA) (men and women with OAB; [6]): −0.72
Micturitions: adjusted difference from placebo at Week 8, difference in LS means (MMRM) (men and women with OAB; vibegron 100 mg): −0.9
Micturitions: difference from placebo at Week 8, difference in LS means (cLDA) (men and women with OAB; vibegron 100 mg): −0.91
Urgency episodes: adjusted difference from placebo at Week 8, difference in LS means (MMRM) (men and women with OAB; vibegron 100 mg): −1.3
Micturitions, change from baseline at week 8, difference in LS means 100 mg − 50 mg (men and women with OAB; vibegron 100 mg vs 50 mg): −0.27
Total incontinence episodes, change from baseline at week 8, difference in LS means 100 mg − 50 mg (men and women with OAB; vibegron 100 mg vs 50 mg): 0.02
Urgency episodes, change from baseline at week 8, difference in LS means 100 mg − 50 mg (men and women with OAB; vibegron 100 mg vs 50 mg): −0.48
Urgency incontinence episodes, change from baseline at week 8, difference in LS means 100 mg − 50 mg (men and women with OAB; vibegron 100 mg vs 50 mg): 0.01
Total incontinence episodes: adjusted difference from placebo at Week 8, difference in LS means (MMRM) (men and women with OAB; [7]): −0.6
Total incontinence episodes: difference from placebo at Week 8, difference in LS means (cLDA) (men and women with OAB; [7]): −0.58
Urgency incontinence episodes: adjusted difference from placebo at Week 8, difference in LS means (MMRM) (men and women with OAB; [7]): −0.7
Urgency incontinence episodes: daily number of events, Week 8 mean (men and women with OAB; [7]): 0.84
Urgency incontinence episodes: difference from placebo at Week 8, difference in LS means (cLDA) (men and women with OAB; [7]): −0.71
